Results on 20 compounds are retold here after ChEMBL document CHEMBL2331407, “Mexican antidiabetic herbs: valuable sources of inhibitors of α-glucosidases” (J Nat Prod, 2013).

Values after ≈ are worked out from the molar mass of the structure shown.

Assay [1] has as its target T1, Alpha-glucosidase MAL12 (Saccharomyces cerevisiae S288c, UniProt P53341). Nature of the assay: (§1) Inhibition of baker's yeast alpha-glucosidase.
Assay [2] has as its target Oligo-1,6-glucosidase IMA1 (Saccharomyces cerevisiae S288c) (UniProt P53051). The assay is described as §1.
Assay [3] concerns alpha-glucosidase (Rattus norvegicus). As to the kind of experiment: Inhibition of rat intestinal alpha-glucosidase. The settings on record: concentration not given here. On the set-up: concentration or dose not given beside the values.
Assay [4] can be described thus: Inhibition of rat intestinal alpha-glucosidase.
For the next assay, the species on record is Rattus norvegicus. As to the kind of experiment: Gastroprotective activity in rat assessed as protection against ethanol-induced gastric injury. Type of assay: functional, Stomach. Conditions: for ED50: Rattus norvegicus, Stomach.
Assay [5] addresses alpha-glucosidase (Mus musculus). As to the kind of experiment: Inhibition of alpha-glucosidase from mouse intestine crude homogenate.
Assay [6] addresses T1, Alpha-glucosidase MAL12. As to the kind of experiment: Mixed type inhibition of baker's yeast alpha-glucosidase by Dixon plot analysis.

T1 sequence (P53341 whole entry): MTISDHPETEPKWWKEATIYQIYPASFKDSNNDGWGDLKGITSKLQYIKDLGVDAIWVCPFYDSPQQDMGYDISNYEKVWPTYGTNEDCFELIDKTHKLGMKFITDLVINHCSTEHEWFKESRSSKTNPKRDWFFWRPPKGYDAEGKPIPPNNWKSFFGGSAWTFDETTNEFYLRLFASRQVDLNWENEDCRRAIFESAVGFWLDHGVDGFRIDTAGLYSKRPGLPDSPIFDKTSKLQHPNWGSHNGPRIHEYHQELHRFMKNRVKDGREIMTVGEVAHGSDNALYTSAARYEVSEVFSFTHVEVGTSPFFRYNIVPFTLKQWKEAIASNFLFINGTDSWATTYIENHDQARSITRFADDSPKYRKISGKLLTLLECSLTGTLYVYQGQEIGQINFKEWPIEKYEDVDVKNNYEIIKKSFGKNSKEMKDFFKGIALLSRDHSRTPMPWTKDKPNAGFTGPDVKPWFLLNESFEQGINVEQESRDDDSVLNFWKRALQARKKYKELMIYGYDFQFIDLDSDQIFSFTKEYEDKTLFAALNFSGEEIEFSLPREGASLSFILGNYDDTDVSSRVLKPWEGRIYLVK
Chain of Oligo-1,6-glucosidase IMA1 (Saccharomyces cerevisiae S288c) (P53051 whole entry): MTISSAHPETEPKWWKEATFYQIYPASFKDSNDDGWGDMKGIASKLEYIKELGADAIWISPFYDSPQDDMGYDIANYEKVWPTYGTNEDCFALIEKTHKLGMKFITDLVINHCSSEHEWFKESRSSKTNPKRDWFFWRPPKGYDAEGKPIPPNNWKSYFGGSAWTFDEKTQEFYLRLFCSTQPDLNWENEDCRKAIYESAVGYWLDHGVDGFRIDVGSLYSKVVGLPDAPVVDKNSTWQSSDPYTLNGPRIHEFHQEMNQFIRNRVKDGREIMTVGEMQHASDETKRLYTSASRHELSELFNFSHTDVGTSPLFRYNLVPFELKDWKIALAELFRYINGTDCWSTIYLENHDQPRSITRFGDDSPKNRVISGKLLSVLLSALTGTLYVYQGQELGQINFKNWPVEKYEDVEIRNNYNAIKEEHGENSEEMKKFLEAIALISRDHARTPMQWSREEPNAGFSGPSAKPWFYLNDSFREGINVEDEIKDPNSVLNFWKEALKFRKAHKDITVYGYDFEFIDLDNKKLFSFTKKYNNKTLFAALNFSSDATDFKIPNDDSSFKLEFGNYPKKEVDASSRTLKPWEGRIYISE

For the compound `O=c1cc(-c2ccc(O)c(O)c2)c2c(O)cc(O)cc2o1`, the concentration for half-maximal inhibition (IC50) (in general, the concentration needed to halve the response being measured) against Alpha-glucosidase MAL12 [1] came to 208 µM. In assay [2], the inhibition (in general, how much of the control response was suppressed) was “Dose-dependent effect”. Turning to `COC(C)(C)/C=C/C[C@@H](C)[C@H]1CC[C@@]2(C)[C@@H]3C=C[C@@]45OC[C@]3(CC[C@]12C)[C@@H]4CC[C@H](O[C@@H]1O[C@H](CO)[C@@H](O)[C@H](O)[C@H]1O)C5(C)C`, in assay [3], the inhibition was determined as 11.5%. For `CC(C)=C[C@H](O[C@@H]1O[C@H](CO)[C@@H](O)[C@@H](O)[C@H]1O)[C@@H](O)[C@@H](C)[C@H]1CC[C@@]2(C)[C@@H]3C=C[C@@]45OC[C@]3(CC[C@]12C)[C@@H]4CC[C@H](O[C@@H]1O[C@H](CO)[C@@H](O)[C@H](O)[C@H]1O)C5(C)C`, the inhibition in assay [3] was 18.6%.

In turn, `C[C@H](CC(O)C(O)C(C)(C)O)[C@H]1CC[C@@]2(C)[C@@H]3CC=C4[C@@H](CC[C@H](O[C@@H]5O[C@H](CO[C@@H]6O[C@H](CO)[C@@H](O)[C@H](O)[C@H]6O)[C@@H](O)[C@H](O)[C@H]5O)C4(C)C)[C@]3(C)CC[C@]12C` (stereo partly specified) came in with an inhibition in assay [3] of 13%. With `COc1cc(/C=C/C(=O)OC[C@H]2O[C@@H](O[C@H]3[C@H](Oc4cc5c(O[C@@H]6O[C@H](CO)[C@@H](O)[C@H](O)[C@H]6O)cc(O)cc5[o+]c4-c4ccc(O)c(OC)c4)O[C@H](COC(=O)/C=C/c4ccc(O)c(O)c4)[C@@H](O)[C@@H]3O)[C@H](O)[C@@H](O)[C@@H]2O)ccc1O`, the 50% inhibitory concentration (IC50) in assay [4] turned out to be 200 µM.

In the case of `O=C(/C=C/c1ccc(O)c(O)c1)O[C@@H]1C[C@](O)(C(=O)O)C[C@@H](O)[C@H]1O` [CHLOROGENIC ACID], in the assay filed under Rattus norvegicus, the Activity came to 74.04% and the median effective dose (ED50) (as a rule, the midpoint of the dose-response relation) was 26 mg/kg.

As to `CC(C)=CC(=O)O[C@H]1C[C@@H](O)[C@@]2(C)CO[C@H]3[C@@H](O)[C@@]4(C)C5=CC[C@@H](c6ccoc6)[C@]5(C)CC[C@@H]4[C@]1(C)[C@@H]32` [MELIACINOLIN], the half-maximal inhibitory concentration (IC50) in assay [5] came out at 32.18 µg/mL (≈ 63 µM). Regarding `CO[C@H]1C=C2[C@@H](CC[C@H](O[C@@H]3O[C@H](CO)[C@@H](O)[C@@H](O)[C@H]3O)C2(C)C)[C@]2(C)CC[C@]3(C)[C@@H]([C@H](C)C/C=C/C(C)(C)O)CC[C@@]3(C)[C@H]12`, the inhibition in assay [3] stood at 15.8%. As for `COc1cc(-c2oc3cc(O)cc(O)c3c(=O)c2O)ccc1O` [ISORHAMNETIN], on Alpha-glucosidase MAL12 [1], 160 µM corresponded to half-maximal inhibition (IC50). `COC(C)(C)/C=C/C[C@@H](C)[C@H]1CC[C@@]2(C)[C@@H]3CC[C@@]45OC(=O)[C@]3(CC[C@]12C)[C@@H]4CC[C@H](O[C@@H]1O[C@H](CO)[C@@H](O)[C@@H](O)[C@H]1O)C5(C)C` gave an inhibition in assay [3] of 13.6%. In turn, `C[C@H](C/C=C/C(C)(C)O)[C@H]1CC[C@@]2(C)[C@@H]3C=C[C@@]45OC[C@]3(CC[C@]12C)[C@@H]4CC[C@H](O[C@@H]1O[C@H](CO)[C@@H](O)[C@@H](O)[C@H]1O)C5(C)C` yielded an inhibition in assay [3] of 12.5%. `C=C1C(=O)O[C@@H]2C[C@@H](C)/C=C\C(=O)[C@](C)(O)[C@H](OC(C)=O)[C@@H](OC(=O)/C(C)=C/C)[C@@H]12` [CALEIN C] came in with an IC50 against Alpha-glucosidase MAL12 [1] of 280 µM. In assay [3], `C[C@H]([C@H](O)[C@@H](O)[C@@H](O)C(C)(C)O)[C@H]1CC[C@@]2(C)[C@@H]3CC=C4[C@@H](CC[C@H](O[C@@H]5O[C@H](CO[C@@H]6O[C@H](CO)[C@@H](O)[C@H](O)[C@H]6O)[C@@H](O)[C@H](O)[C@H]5O)C4(C)C)[C@]3(C)CC[C@]12C` had an inhibition of 21.7%. Regarding `COc1cc(O[C@@H]2O[C@H](CO[C@@H]3OC[C@](O)(CO)[C@H]3O)[C@@H](O)[C@H](O)[C@H]2O)c2c(-c3ccc(O)c(O)c3)cc(=O)oc2c1`, in the assay listed under Rattus norvegicus, the Activity is listed as 68.85% and the 50% effective dose (ED50) stood at 15 mg/kg. For `CC1(C)C=Cc2c(ccc(C(=O)CO)c2O)O1`, the half-inhibitory concentration (IC50) against Alpha-glucosidase MAL12 [1] came out at 420 µM.

The compound `COc1cc(O)c2c(-c3ccc(O)c(O)c3)cc(=O)oc2c1` had an IC50 on Alpha-glucosidase MAL12 [1] of 62 µM. Further, the inhibition entry in assay [2] is “Dose-dependent effect”. As for `C[C@H](C/C=C/C(C)(C)O)[C@H]1CC[C@@]2(C)[C@@H]3C=C[C@@]45OC[C@]3(CC[C@]12C)[C@@H]4CC[C@H](O[C@@H]1O[C@H](CO)[C@@H](O)[C@H](O)[C@H]1O)C5(C)C`, the inhibition in assay [3] was 10.1%. `CO[C@@H]1O[C@]23C=C[C@@H]4[C@@]1(CC[C@]1(C)[C@@H]([C@H](C)C/C=C/C(C)(C)O)CC[C@@]41C)[C@@H]2CC[C@H](O[C@@H]1O[C@H](CO)[C@@H](O)[C@H](O)[C@H]1O)C3(C)C`: the inhibition in assay [3] is 10.9%.

For the compound `CCCC=C1OC(=O)c2ccccc21` [(E)-BUTYLIDENEPHTHALIDE], on Alpha-glucosidase MAL12 [6], the affinity, expressed as Ki, was 4.86 µM. The compound also displayed an IC50 at Alpha-glucosidase MAL12 [1] of 2350 µM. Also, the inhibition entry in assay [2] is “Dose-dependent effect”.

In assay [4], `COc1cc(/C=C/C(=O)OC[C@H]2O[C@@H](O[C@H]3[C@H](Oc4cc5c(O[C@@H]6O[C@H](CO)[C@@H](O)[C@H](O)[C@H]6O)cc(O)cc5[o+]c4-c4ccc(O)c(O)c4)O[C@H](COC(=O)/C=C/c4ccc(O)c(O)c4)[C@@H](O)[C@@H]3O)[C@H](O)[C@@H](O)[C@@H]2O)ccc1O` returned an IC50 of 193 µM.
